Measured values reported in patent publication US20230391760A1, “HETEROCYCLIC GLP-1 AGONISTS” (Gasherbrum Bio, Inc., priority 2020, published 2023).

Target: GLP-1 Receptor (Homo sapiens, UniProt P43220)
Assay: GLP-1R agonist cAMP stimulation assay (HEK293/GLP1R/CRE-LUC cells, cAMP dynamic 2 Kit)
Format: cell-based
Details: HEK293/CRE-Luc cell line stably expressing the GLP-1 Receptor, 30 min at 37° C.
Procedure, shortened: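 cAMP measured by HTRF competition (d2-labelled cAMP with cryptate antibody, 1 h, room temperature, protected from light). Before that, GLP1R/CRE-Luc HEK293 cells (1000/well) were exposed for 30 min at 37 °C to half-log compound dilutions in DPBS containing IBMX 0.5 mM and BSA 0.1%.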

Chain of GLP-1 Receptor (P43220 24-463, species assumed): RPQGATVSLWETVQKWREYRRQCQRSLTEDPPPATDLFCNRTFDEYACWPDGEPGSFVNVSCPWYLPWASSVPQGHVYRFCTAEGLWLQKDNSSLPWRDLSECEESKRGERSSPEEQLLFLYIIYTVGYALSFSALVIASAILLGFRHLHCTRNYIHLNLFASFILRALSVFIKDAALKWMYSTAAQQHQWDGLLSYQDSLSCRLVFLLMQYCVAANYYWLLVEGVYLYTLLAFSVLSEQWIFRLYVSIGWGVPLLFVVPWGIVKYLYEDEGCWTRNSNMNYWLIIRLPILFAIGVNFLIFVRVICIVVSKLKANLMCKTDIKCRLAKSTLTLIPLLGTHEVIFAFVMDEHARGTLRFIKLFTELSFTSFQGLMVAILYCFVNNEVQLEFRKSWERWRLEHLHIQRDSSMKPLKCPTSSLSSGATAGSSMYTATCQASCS

Compound | EC50
O=C1OCCN1c1ccc2c(c1)nc(CN1CCC(c3cccc(OCc4ccc(Cl)cc4F)n3)CC1)n2C[C@@H]1CCO1 [Compound 120a, 3-{2-[(4-{6-[(4-chloro-2-fluorophenyl)methoxy]pyridin-2-yl}piperidin-1-yl)methyl]-1-{[(2S)-oxetan-2-yl]methyl}-1H-1,3-benzodiazol-5-yl}-1,3-oxazolidin-2-one] | 4 nM
N#Cc1ccc(COc2cc(C3=CCN(Cc4nc5cc(-c6nnc(C(F)(F)F)[nH]6)cnc5n4C[C@@H]4CCO4)CC3)ccc2F)c(F)c1 [Compound 296a, 3-fluoro-4-[(2-fluoro-5-{1-[(3-{[(2S)-oxetan-2-yl]methyl}-6-[5-(trifluoromethyl)-4H-1,2,4-triazol-3-yl]-3H-imidazo[4,5-b]pyridin-2-yl)methyl]-1,2,3,6-tetrahydropyridin-4-yl}phenoxy)methyl]benzonitrile] | 0.48 nM
CC1(c2ccc(Cl)cc2F)Oc2cccc(C3CCN(Cc4nc5cc(-c6noc(=O)[nH]6)cnc5n4C[C@H]4CCOC4)CC3)c2O1 (stereo partly drawn) [Compound 400a, 3-[2-({4-[2-(4-chloro-2-fluorophenyl)-2-methyl-2H-1,3-benzodioxol-4-yl]piperidin-1-yl}methyl)-3-{[(3R)-oxolan-3-yl]methyl}-3H-imidazo[4,5-b]pyridin-6-yl]-4,5-dihydro-1,2,4-oxadiazol-5-one] | 3.7 nM
CC1(c2ccc(C#N)cc2)Oc2cccc(C3CCN(Cc4nc5cc(-c6nnc(C(F)(F)F)[nH]6)ccc5n4C[C@@H]4CCO4)CC3)c2O1 (stereo partly drawn) [Compound 260a, 4-(2-methyl-4-{1-[(1-{[(2S)-oxetan-2-yl]methyl}-5-[5-(trifluoromethyl)-4H-1,2,4-triazol-3-yl]-1H-1,3-benzodiazol-2-yl)methyl]piperidin-4-yl}-2H-1,3-benzodioxol-2-yl)benzonitrile] | 0.031 nM
CS(=O)(=O)Nc1ccc2c(c1)nc(CN1CCC(c3cccc(OCc4ccc(Cl)cc4F)n3)CC1)n2C[C@@H]1CCO1 [Compound 108a, (S)—N-(2-((4-(6-((4-chloro-2-fluorobenzyl)oxy)pyridin-2-yl)piperidin-1-yl)methyl)-1-(oxetan-2-ylmethyl)-1H-benzo[d]imidazol-5-yl)methanesulfonamide] | 155 nM
O=C(Nc1ccc2c(c1)nc(CN1CCC(c3cccc(OCc4ccc(Cl)cc4F)n3)CC1)n2C[C@@H]1CCO1)C1CCCOC1 (single isomer, unassigned) [Compound 154b] | 0.074 nM
COC1(C(=O)Nc2ccc3c(c2)nc(CN2CCC(c4cccc(OCc5ccc(Cl)cc5F)n4)CC2)n3C[C@@H]2CCO2)CCCOC1 (stereo partly drawn) [Compound 196a, N-{2-[(4-{6-[(4-chloro-2-fluorophenyl)methoxy]pyridin-2-yl}piperidin-1-yl)methyl]-1-{[(2S)-oxetan-2-yl]methyl}-1H-1,3-benzodiazol-5-yl}-3-methoxyoxane-3-carboxamide] | 1.1 nM
Fc1cc(Cl)ccc1COc1cccc(C2=CCN(Cc3nc4cc(-c5nnc(C(F)(F)F)[nH]5)cnc4n3C[C@@H]3CCO3)CC2)c1 [Compound 319a, 4-{3-[(4-chloro-2-fluorophenyl)methoxy]phenyl}-1-[(3-{[(2S)-oxetan-2-yl]methyl}-6-[5-(trifluoromethyl)-4H-1,2,4-triazol-3-yl]-3H-imidazo[4,5-b]pyridin-2-yl)methyl]-1,2,3,6-tetrahydropyridine] | 0.36 nM
CC1(c2ccc(C#N)cn2)Oc2cccc(C3CCN(Cc4nc5cc(-c6nnc(C(F)(F)F)[nH]6)ccc5n4C[C@@H]4CCO4)CC3)c2O1 (stereo partly drawn) [Compound 354a, 6-(2-methyl-4-{1-[(1-{[(2S)-oxetan-2-yl]methyl}-5-[5-(trifluoromethyl)-4H-1,2,4-triazol-3-yl]-1H-1,3-benzodiazol-2-yl)methyl]piperidin-4-yl}-2H-1,3-benzodioxol-2-yl)pyridine-3-carbonitrile] | 0.11 nM
Cc1ncccc1C(=O)Nc1ccc2c(c1)nc(CN1CCC(c3cccc(OCc4ccc(Cl)cc4F)n3)CC1)n2C[C@@H]1CCO1 [Compound 188a, N-{2-[(4-{6-[(4-chloro-2-fluorophenyl)methoxy]pyridin-2-yl}piperidin-1-yl)methyl]-1-{[(2S)-oxetan-2-yl]methyl}-1H-1,3-benzodiazol-5-yl}-2-methylpyridine-3-carboxamide] | 0.043 nM
CC1(c2ccc(Cl)cc2F)Oc2cccc(C3CCN(Cc4nc5cc(-c6noc(=O)[nH]6)ccc5n4C[C@@H]4CCO4)CC3)c2O1 (mixture of isomers) [Compound 239a, 3-(2-((4-(2-(4-chloro-2-fluorophenyl)-2-methylbenzo[d][1,3]dioxol-4-yl)piperidin-1-yl)methyl)-1-(((S)-oxetan-2-yl)methyl)-1H-benzo[d]imidazol-5-yl)-1,2,4-oxadiazol-5(4H)-one] | 0.071 nM
O=C(Nc1ccc2c(c1)nc(CN1CCC(c3cccc(OCc4ccc(Cl)cc4F)n3)CC1)n2C[C@@H]1CCO1)c1ccc(F)cn1 [Compound 190a, N-{2-[(4-{6-[(4-chloro-2-fluorophenyl)methoxy]pyridin-2-yl}piperidin-1-yl)methyl]-1-{[(2S)-oxetan-2-yl]methyl}-1H-1,3-benzodiazol-5-yl}-5-fluoropyridine-2-carboxamide] | 1.2 nM
O=C(O)CCc1ccc2c(c1)nc(CN1CC=C(c3cccc(OCc4ccc(Cl)cc4F)n3)CC1)n2C[C@@H]1CCO1 [Compound 113a, (S)-3-(2-((6-((4-chloro-2-fluorobenzyl)oxy)-3′,6′-dihydro-[2,4′-bipyridin]-1′(2′H)-yl)methyl)-1-(oxetan-2-ylmethyl)-1H-benzo[d]imidazol-5-yl)propanoic acid] | 38.2 nM
CC1(c2ccc(Cl)cc2)Oc2cccc(C3CCN(Cc4nc5cc(-c6nnc(C(F)(F)F)[nH]6)ncc5n4C[C@@H]4CCO4)CC3)c2O1 (stereo partly drawn) [Compound 361a, 4-[2-(4-chlorophenyl)-2-methyl-2H-1,3-benzodioxol-4-yl]-1-[(3-{[(2S)-oxetan-2-yl]methyl}-6-[5-(trifluoromethyl)-4H-1,2,4-triazol-3-yl]-3H-imidazo[4,5-c]pyridin-2-yl)methyl]piperidine] | 0.034 nM
CO[C@H](C)Cn1c(CN2CCC(c3cccc4c3O[C@@](C)(c3ccc(Cl)cn3)O4)CC2)nc2cc(-c3nnc(C(F)(F)F)[nH]3)ncc21 [Compound 455a, 5-chloro-2-[(2S)-4-[1-({3-[(2R)-2-methoxypropyl]-6-[5-(trifluoromethyl)-4H-1,2,4-triazol-3-yl]-3H-imidazo[4,5-c]pyridin-2-yl}methyl)piperidin-4-yl]-2-methyl-2H-1,3-benzodioxol-2-yl]pyridine] | 0.12 nM
CC1OC2(C(=O)Nc3ccc4c(c3)nc(CN3CCC(c5cccc(OCc6ccc(Cl)cc6F)n5)CC3)n4C[C@@H]3CCO3)CCC1CC2 (stereo partly drawn) [Compound 198a, N-{2-[(4-{6-[(4-chloro-2-fluorophenyl)methoxy]pyridin-2-yl}piperidin-1-yl)methyl]-1-{[(2S)-oxetan-2-yl]methyl}-1H-1,3-benzodiazol-5-yl}-3-methyl-2-oxabicyclo[2.2.2]octane-1-carboxamide] | 12 nM
Fc1cc(Cl)ccc1COc1cccc(C2=CCN(Cc3nc4cc(-c5nnc(C(F)(F)F)[nH]5)ncc4n3C[C@@H]3CCO3)CC2)c1 [Compound 307a, 4-{3-[(4-chloro-2-fluorophenyl)methoxy]phenyl}-1-[(3-{[(2S)-oxetan-2-yl]methyl}-6-[5-(trifluoromethyl)-4H-1,2,4-triazol-3-yl]-3H-imidazo[4,5-c]pyridin-2-yl)methyl]-1,2,3,6-tetrahydropyridine] | 0.26 nM
O=C(Nc1ccc2c(c1)nc(CN1CCC(c3cccc(OCc4ccc(Cl)cc4F)n3)CC1)n2C[C@@H]1CCO1)C1COC1 [Compound 104a, (S)—N-(2-((4-(6-((4-chloro-2-fluorobenzyl)oxy)pyridin-2-yl)piperidin-1-yl)methyl)-1-(oxetan-2-ylmethyl)-1H-benzo[d]imidazol-5-yl)oxetane-3-carboxamide] | 0.207 nM
CSc1nnc(-c2ccc3c(c2)nc(CN2CCC(c4cccc5c4OC(C)(c4ccc(Cl)cc4F)O5)CC2)n3C[C@@H]2CCO2)[nH]1 (stereo partly drawn) [Compound 252a, 2-({4-[2-(4-chloro-2-fluorophenyl)-2-methyl-2H-1,3-benzodioxol-4-yl]piperidin-1-yl}methyl)-5-[5-(methylsulfanyl)-4H-1,2,4-triazol-3-yl]-1-{[(2S)-oxetan-2-yl]methyl}-1H-1,3-benzodiazole] | 0.066 nM
Cc1nnc(-c2ccc3c(c2)nc(CN2CCC(c4cccc5c4O[C@@](C)(c4ccc(C#N)cc4F)O5)CC2)n3C[C@@H]2CCO2)[nH]1 [Compound 410a, 3-fluoro-4-[(2S)-2-methyl-4-(1-{[5-(5-methyl-4H-1,2,4-triazol-3-yl)-1-{[(2S)-oxetan-2-yl]methyl}-1H-1,3-benzodiazol-2-yl]methyl}piperidin-4-yl)-2H-1,3-benzodioxol-2-yl]benzonitrile] | 0.029 nM
CC1(c2ccc(Cl)cc2)Oc2cccc(C3CCN(Cc4nc5cc(-c6nnc(C(F)(F)F)[nH]6)ccc5n4CC4(C#N)CC4)CC3)c2O1 (stereo not shown) [Compound 446, 1-{[2-({4-[2-(4-chlorophenyl)-2-methyl-2H-1,3-benzodioxol-4-yl]piperidin-1-yl}methyl)-5-[5-(trifluoromethyl)-4H-1,2,4-triazol-3-yl]-1H-1,3-benzodiazol-1-yl]methyl}cyclopropane-1-carbonitrile] | 0.12 nM
CO[C@H](C)Cn1c(CN2CCC(c3cccc4c3O[C@@](C)(c3ccc(Cl)cc3F)O4)CC2)nc2cc(-c3nnc(C(F)(F)F)[nH]3)cnc21 [Compound 247b, 4-[(2S)-2-(4-chloro-2-fluorophenyl)-2-methyl-2H-1,3-benzodioxol-4-yl]-1-({3-[(2R)-2-methoxypropyl]-6-[5-(trifluoromethyl)-4H-1,2,4-triazol-3-yl]-3H-imidazo[4,5-b]pyridin-2-yl}methyl)piperidine] | 0.093 nM
